**Q.** With Cc1nc2ccc(C(=O)NS(=O)(=O)c3ccccc3)nc2n1Cc1ccc(CCc2ccccc2)cc1Cl as the molecule, how does the melting point read?
**A.** 180 to 181 °C

**Q.** Which melting point does the source give for COc1ccc(-c2nc(C)c(C(=O)Nc3nnn[nH]3)s2)cc1 here?
**A.** 275 to 278 °C

**Q.** With O=c1cc(-c2ccoc2)c2ccc(COc3cc(F)cc(-c4ccccc4)c3)cc2o1 as the molecule, how does the melting point read?
**A.** 105 to 107 °C

**Q.** With COc1ccc(C2CCOCC2)c2sc(NC(=O)c3ccnc(CN4CCOCC4)c3)nc12 as the molecule, how does the melting point read?
**A.** 199 to 201 °C

**Q.** With COc1ccc(C2CN(O)C3(c4ccccc4)CCCCC23)cc1OC (configuration not stated) as the molecule, how does the melting point read?
**A.** 166 to 168 °C

**Q.** Which melting point does the source give for CCOC(=O)C=Cc1ccc(Oc2nsnc(Cl)c2=O)cc1 here?
**A.** 126 to 128 °C

**Q.** With COc1cccc(Nc2nccc(-c3sc(N)nc3-c3ccccc3)n2)c1 as the molecule, how does the melting point read?
**A.** 115 to 117 °C

**Q.** Which melting point does the source give for CCO[C@@H]1[C@@H](OC)[C@H](C)O[C@@H](ON=Cc2ccc(C#Cc3ccc(OC(F)(F)F)cc3)cc2)[C@@H]1OC here?
**A.** 82 to 87 °C

**Q.** Which melting point does the source give for O=C(O)COc1cc(F)ccc1C(=O)NCc1ccc(Br)cc1F here?
**A.** 143 to 145 °C

**Q.** For C=CCc1c([N+](=O)[O-])ccc2c1OC(CO)CO2 (configuration not stated), which melting point is on record?
**A.** 67 °C

**Q.** For CCOC(=O)c1cn(-c2nccs2)c2c(F)c(F)c(F)cc2c1=O, which melting point is on record?
**A.** 172 to 174 °C

**Q.** For CCc1nc2c(o1)C(=O)C(Cl)=C(Nc1ccccc1)C2=O, which melting point is on record?
**A.** 159 °C

**Q.** For O=C(O)c1cc(Br)cc2c1NCCC2C(=O)O (configuration not stated), which melting point is on record?
**A.** 238 to 239 °C

**Q.** Which melting point does the source give for CC(C)(C)c1cc(NC=O)n[nH]1 here?
**A.** 204 to 206 °C

**Q.** For CC1=C(O)C(=O)C(C)(CC2(O)C=CC=CC2)O1 (configuration not stated), which melting point is on record?
**A.** 122 to 124 °C

**Q.** Which melting point does the source give for CSc1nc2c(OCc3ccccc3)cccc2n1CCCO here?
**A.** 106 to 107 °C

**Q.** With COC(C)(OC)C(=O)CCCCCCOc1ccc(-c2ccccc2)cc1 as the molecule, how does the melting point read?
**A.** 48 °C

**Q.** Which melting point does the source give for COc1cc(C(=O)O)cc(CCc2ccccc2)c1C(=O)O here?
**A.** 242 to 244 °C

**Q.** Which melting point does the source give for O=C(Nc1ccccc1)C1=C(Nc2ccc(Cl)cc2)COC1=O here?
**A.** 209 to 210 °C

**Q.** For CC1CC(=O)NN=C1c1ccc(N2CCNCC2)c(N)c1 (configuration not stated), which melting point is on record?
**A.** 244 to 245 °C

**Q.** With O=S1(=O)c2cccc3cccc(c23)N1CCN1CCC(Cc2cc3cc(F)ccc3[nH]2)CC1 as the molecule, how does the melting point read?
**A.** 154 °C

**Q.** For CC(=O)NC(=O)c1cn(Cc2ccccc2)nc1OCc1ccc(OCc2nc(-c3ccco3)oc2C)cc1, which melting point is on record?
**A.** 193 to 194 °C

**Q.** Which melting point does the source give for COc1cc(C)n2nc(SCc3ccccc3)nc2n1 here?
**A.** 112 to 115 °C

**Q.** For Cc1sc2nc(N(CCO)CCO)nc(NCc3ccccn3)c2c1Br, which melting point is on record?
**A.** 152 °C

**Q.** Which melting point does the source give for CCNc1ccc2nc(Cl)c(S(N)(=O)=O)n2n1 here?
**A.** 218 to 220 °C

**Q.** For CC(=O)C(=Cc1cccc([N+](=O)[O-])c1)C(C)=O, which melting point is on record?
**A.** 92 to 95 °C

**Q.** With Cc1oc(-c2ccccc2)nc1COc1cccc(COc2cccc(CC(=O)O)c2)n1 as the molecule, how does the melting point read?
**A.** 97 to 98 °C

**Q.** Which melting point does the source give for CC(=O)N1CCc2c(c3ccc(-n4ccc(OCc5ccccc5)cc4=O)cc3n2C)C1 here?
**A.** 225 to 230 °C

**Q.** With C/C(=N\OCCCOc1ccc(C(=O)O)c(NC(=O)c2ccc(C(F)(F)F)cc2)c1)c1ccccc1 as the molecule, how does the melting point read?
**A.** 174 to 176 °C

**Q.** With Cc1ccc(NC(=O)N(C)Cc2cccc3c2C(=O)N(C2CCC(=O)NC2=O)C3=O)cc1Cl (configuration not stated) as the molecule, how does the melting point read?
**A.** 193 to 195 °C

**Q.** With CC(C)NC(=O)N(Nc1cccc(Cl)c1Cl)C1=CCCN1 as the molecule, how does the melting point read?
**A.** 109 to 111 °C

**Q.** With O=C(O)c1ccccc1OCCN1CCC(c2cn(CCCC3OCCO3)c3ccccc23)CC1 as the molecule, how does the melting point read?
**A.** 147 to 149 °C

**Q.** For CC1CCCC(C)N1S(=O)(=O)N[C@@H](Cc1ccc(Oc2nccc3cnccc23)cc1)C(=O)O (some centres not stated), which melting point is on record?
**A.** 151 °C

**Q.** For CS(=O)(=O)c1ccc(-n2nccc2-c2ccc(-c3ccco3)cc2)cc1F, which melting point is on record?
**A.** 155 to 156 °C

**Q.** For Cc1ccc(-c2c(NS(=O)(=O)c3ccc(C(C)(C)C)cc3)ncnc2OCCOc2ncc(SC(C)C)cn2)cc1, which melting point is on record?
**A.** 162 °C

**Q.** Which melting point does the source give for C=CC(O)(c1ccc(Cl)cc1)c1cccnc1 (configuration not stated) here?
**A.** 82.5 to 84 °C

**Q.** For COC(=O)COc1ccc2cc(CNC(=O)c3cc(-c4ccc(Cl)cc4)oc3C)ccc2c1, which melting point is on record?
**A.** 168 to 169 °C

**Q.** For CC(C)(C)c1ccccc1N1CCN(C(=O)Cc2nnn[nH]2)CC1, which melting point is on record?
**A.** 236 to 237 °C

**Q.** With O=C(C1CC1)N1CC[C@@H](Oc2ccc(F)cc2)[C@H](c2ccccc2)C1 (relative stereo) as the molecule, how does the melting point read?
**A.** 113 to 115 °C

**Q.** With CC(=O)c1cc2c(=O)n(NS(C)(=O)=O)c(=O)[nH]c2cc1C(F)(F)F as the molecule, how does the melting point read?
**A.** 258 to 265 °C

**Q.** Which melting point does the source give for NC(=O)c1c[nH]cc1-c1cccc(Cl)c1Cl here?
**A.** 185 to 190 °C

**Q.** For C[C@@H](n1cnc2cc(-c3ccc(C#N)cc3)sc2c1=O)[C@](O)(Cn1cncn1)c1ccc(F)cc1F, which melting point is on record?
**A.** 231 to 232 °C

**Q.** With Cc1ccccc1NC1(C#N)CCN(C(=O)c2cc(C(F)(F)F)cc(C(F)(F)F)c2)CC1 as the molecule, how does the melting point read?
**A.** 141 to 142 °C

**Q.** With CCOC(=O)c1cc(=O)c2c(C)c(Cl)c(C)cc2o1 as the molecule, how does the melting point read?
**A.** 114 to 116 °C

**Q.** For Cc1ccc(C)c(OCCCC(C)(C)C(=O)Nc2cccc(C3=NC(C)(C)CO3)c2C)c1, which melting point is on record?
**A.** 51 to 52 °C

**Q.** With CC(C(=O)O)c1ccc2c(Br)c(OCc3ccc4ccccc4n3)ccc2c1 (configuration not stated) as the molecule, how does the melting point read?
**A.** 210 to 212 °C

**Q.** For OC(CNC1CC1)COc1ccc(-c2nc(C(F)(F)F)c[nH]2)cc1 (configuration not stated), which melting point is on record?
**A.** 169 to 171 °C

**Q.** Which melting point does the source give for O=C1C2=C(SCCS2)C(O)N1c1ccc2c(Cl)ccnc2n1 (configuration not stated) here?
**A.** 300 to 305 °C

**Q.** With O=c1[nH]c2cc(-c3ccccc3)nnc2c2ccccc12 as the molecule, how does the melting point read?
**A.** 340 to 342 °C

**Q.** For Fc1ccc(-c2[nH]c(=S)sc2CCCl)cc1, which melting point is on record?
**A.** 176 °C

**Q.** For CCCCCN1C(=O)C(O)(c2cc3c(cc2O)OCO3)c2ccncc21 (configuration not stated), which melting point is on record?
**A.** 193 to 195 °C

**Q.** With O=C1c2ccccc2-n2cnc(-c3noc(CCl)n3)c2[C@@H]2CCCN12 as the molecule, how does the melting point read?
**A.** 205 to 206 °C

Source: a melting point compilation (Tetko et al.; mined from patent text by program, amines drawn as free bases though some values may be those of a salt)
